# Reference: patent US11602510B2, “Agent for use in the treatment of dyslipidemia” (Flexopharm Brain GMBH & Co. KG, priority 2017, dated 2023)
# “Also recorded” adds a separate entry of the source. Like-named read-outs stand apart in the source and are kept apart here.
# Columns and labels:
# [1] = system: rats with normal and cholesterol-rich diets; details: cited from earlier work
# [2] = system: patients whose LDL cholesterol level had been adjusted to a stable level by atorvastatin; experiment: Patient study: propionate added to stable atorvastatin treatment, LDL value; assay type: in vivo, human; details: for LDL value / LDL cholesterol level (in words): 2×500 mg propionate for more than eight weeks in addition to atorvastatin, five patients, FIG. 9
# Method: The decrease appears to be greatest in patients showing the highest initial LDL value,
# FIG. 10 is a block diagram showing the result of a patient study. On the left, the diagram indicates the averaged initial value of the patients stable through administration of atorvastatin, on the right the averaged LDL value of the patients after taking 2×500 mg of propionate daily for at least eight weeks.
# The patient study attests to the positive influence of 2×500 mg of sodium propionate in addition to atorvastatin.
# [3] = system: rats; details: oral and rectal administration of high doses; cited from earlier work
# [4] = system: HMG-CoA synthase; experiment: HMG-CoA synthase mRNA expression by reverse transcriptase-polymerase chain reaction; assay type: in vivo; details: RT-PCR, FIG. 5
# [5] = system: PCSK9; experiment: PCSK9 expression by reverse transcriptase-polymerase chain reaction; assay type: in vivo; details: RT-PCR, FIG. 7
# [6] = system: LDL receptor; experiment: LDL receptor expression by reverse transcriptase-polymerase chain reaction in the liver; assay type: in vivo; details: RT-PCR in the liver following treatment, FIG. 8
# [7] = system: patients with dyslipidemia; experiment: LDL cholesterol in patients with dyslipidemia treated with propionic acid; assay type: in vivo, human; details: n=24, initial LDL cholesterol >110 mg/dl, after 2-6 months of treatment, FIG. 4
# [8] = system: patients; details: high doses, cited from earlier work
# [9] = system: pigs; details: comparatively higher doses; cited from earlier work
# [10] = system: hypercholesterolemic mouse model; experiment: LDL cholesterol in the hypercholesterolemic mouse model (high fat diet); assay type: in vivo
# Description: HF: High Fat (60 KJ % fat content); PA: Propionic Acid. […] HFD: High Fat Diet; PA: Propionic Acid.
# [11] = system: HMG-CoA reductase; experiment: HMG-CoA reductase expression by reverse transcriptase-polymerase chain reaction; assay type: in vivo; details: RT-PCR, FIG. 6
SMILES,"total cholesterol ([1]; rats consuming cholesterol-rich food, about 100 mg per day)",total cholesterol ([1]; rats fed a normal diet),LDL value / LDL cholesterol level (in words) [2],liver cholesterol levels [3],expression of HMG-CoA synthase at mRNA level [4],expression of PCSK9 [5],expression of the LDL receptor [6],cholesterol-lowering effect (LDL cholesterol) [7],expression of HMG-CoA synthase at mRNA level ([4]; listed as Propionate),serum cholesterol level ([8]; one case),HDL serum cholesterol concentration ([8]; second case),expression of PCSK9 ([5]; listed as Propionates),"reduction of the LDL value on average ([2]; 2×500 mg propionate daily for at least eight weeks on top of stable atorvastatin, FIG. 10) [%]",cholesterol concentration in back fat [9],cholesterol content in the liver [9],total cholesterol [9],"LDL cholesterol ([10]; propionate alone, High Fat (60 KJ % fat content), FIG. 2)","LDL cholesterol ([10]; propionic acid additionally administered to atorvastatin, High Fat Diet, FIG. 3)",expression of HMG-CoA reductase [11],expression of HMG-CoA reductase ([11]; listed as Propionate)
CCC(=O)[O-].[Na+] [sodium propionate],significant reduction in total cholesterol,practically no effect,further significantly reduced,only insignificantly,,,,,,,,,,,,,,,,
"CC(C)c1c(C(=O)Nc2ccccc2)c(-c2ccccc2)c(-c2ccc(F)cc2)n1CC[C@@H](O)C[C@@H](O)CC(=O)O [atorvastatin, reference compound]",,,,,but not by atorvastatin,increased expression; also recorded: increase in PCSK9 expression,Neither the propionic acid nor the atorvastatin has an effect,,,,,,,,,,,,,
"CCC(=O)O [propionic acid, Propionic acid]",,,the LDL value was reduced,,negatively regulated; also recorded: reduced expression,no influence,Neither the propionic acid nor the atorvastatin has an effect,cholesterol-lowering effect,significantly down-regulated; also recorded: much more pronounced than that of atorvastatin,slight reduction,increased,do not have an effect,~40,significantly higher cholesterol concentration,slight increase,reduced total cholesterol,reduction of LDL cholesterol,trend towards further reduction of LDL cholesterol,negatively regulated; also recorded: reduced expression,significantly down-regulated
